For data set [1] the following is noted: octanol/water; of the organic molecule corresponding to the amino acid side chain at position 3, not of the peptide; ref Sangster, 1989; cited from earlier work.
The target in another data set is T1, α‐thrombin (αT) (Homo sapiens, UniProt P00734).
T1 construct: goes from Thr1 of the A-chain to Glu295 of the B-chain
The experiment in a line: Tight-binding inhibition of αT amidolytic activity on chromogenic substrate S2238. It is filed as biochemical.

Data set [2] addresses T2, αT (Homo sapiens, UniProt P00734, S568A). Set-up: made in house. The settings on record: cited from earlier work. The source says: Abstract Hirudin from Hirudo medicinalis is a bivalent α‐Thrombin (αT) inhibitor, targeting the enzyme active site and exosite‐I, and is currently used in anticoagulant therapy along with its simplified analogue hirulog. […] At variance with hirudin, haemadin targets exosite‐II and therefore (besides the free protease) it also blocks thr ... || The relevance of pharmacological applications of hirudin and its analogues has stimulated intensive research on hematophagous organisms, allowing identification of novel αT protein inhibitors, including the isolation of haemadin from the Indian leech Haemadipsa sylvestris (Strube et al., [1993]). […] However, haemadin binds to the fast form only 7‐fold more tightly than to the Na^+‐free (slow) form, with a coupling free energy ΔG c = ΔG b(fast) − ΔG b(slow) = −1.1 kcal/mol. For comparison, full‐length hirudin and its N‐terminal domain 1–47, bind more tightly to the fast form by ~30‐fold (ΔG c = −2.1 kcal/mol), compared to the slow form (De Filippis et al., [2005]; Di Cera et al., [1997]). The higher af ... || (+ 1 further places)

Data set [3] is described as follows: Thermal denaturation monitored by far‐UV CD. The data set is classed as physicochemical. The settings on record: PBS pH 7.4, protein 0.69 mg/mL; CD at 233 nm (haemadin) or 220 nm (hirudin); heating 40°C·h^−1; inflection point, rough estimate.
Description: CD spectra were recorded on a Jasco J‐810 spectropolarimeter equipped with a Peltier model ETC‐273 T temperature control system (De Filippis, Polverino de Laureto, et al., [1996]). Far and Near UV‐CD spectra were recorded in a 0.1‐ or 1 cm‐pathlength quartz cell at a peptide/protein concentration of 0.47 or 1 mg/mL, respectively. All measurements were performed in phosphate buffered saline (PBS, 10 mM Na2HPO4 pH 7.4, 0.15 M NaCl) at 25 ± 0.1°C. The final spectra resulted from the average of four accumulations after base line subtraction. CD data were expressed as the mean residue ellipticity, [θ] = θ obs·MRW/(10·l·c), where θ obs is the observed signal in degrees, MRW is the mean residue weight, l is the cuvette pathlength in cm, and c is the protein concentration in g∙mL^−1. Stability measurements were carried out by recording the change of the CD signal in the far‐UV region as a function of sample temperature, using a 0.1‐cm pathlength cuvette and linear heating rate of 40°C∙h^−1. The reversibility of thermal unfolding was determined by measuring the recovery of the CD signal upon cooling to the starting temperature. The melting temperature (T m) was estimated from the first‐derivative of the thermal denaturation curve (De Filippis, Vassiliev, et al., [1996]; Frigerio et al., [1996]).
Data set [4] has as its system αT. Particulars: at the Arg‐X bond; ref Maraganore et al., 1990; Lombardi et al., 1996, 1999; cited from earlier work. The text has this: The fragment‐based approach is quite common in drug discovery and has been already exploited for the production of hirulogs, hirutonins, and hirunorms as simplified hirudin analogues (Lombardi et al., [1996]; Maraganore et al., [1990]; Szewczuk et al., [1993]). […] As a result, hirulog I (Angiomax®) is slowly ...

The target of data set [5] is T2, αT.
Data set [6] addresses T3, α‐Thrombin mutant R93A (exosite II) (Homo sapiens, UniProt P00734, R452A).
T3 construct: made in house
The experiment in a line: Slow binding inhibition of thrombin mutant R93A. The data set is classed as biochemical. The settings on record: slow binding inhibition model. How it is done: Single X → Ala mutants of αT at either exosite I (Phe34Ala, Lys73Ala, Lys110Ala) and II (Arg93Ala, Arg101Ala) were produced and purified to homogeneity as earlier reported (Acquasaliente et al., [2016]; Pozzi et al., [2013]) (Figure S3) and incubated with haemadin to extract kinetic (k on and k off) and equilibrium (K I) constants of αT inhibition. […]
When slow binding inhibition assays were performed, αT (50 pM) was added to solutions of S2238 (50 μM) in the presence of increasing inhibitor (I) concentrations. From the time‐course release of pNA, [P]t, an observed kinetic constant (k obs) of substrate hydrolysis could be determined as a fitting parameter by interpolating each progress curve at increasing [I] to Equation (5) (Arcone et al., [2009]): (5) Pt=vs∙t+vo−vs/kobs∙1−e^−kobs∙t, where v 0 and v s is the initial or steady state velocity at each [I]. The association (k on) and dissociation (k off) rate constants of αT‐haemedin interaction were determined as fitting parameters by interpolating the data points of k obs as a function of [I] with Equation (6): (6) kobs=kon/1+S/Km∙I+koff. […]

The target in data set [7] is T4, recombinant wild type thrombin (αT) (Homo sapiens, UniProt P00734).
T4 construct: made in house
Description: Slow binding inhibition of thrombin amidolytic activity (S2238 progress curves). The data set is classed as biochemical. The settings on record: slow binding inhibition model (Eq. 5, 6), 25°C, TBS pH 7.4.
Description: (§1) and added with the chromogenic substrate S2238 (100 mM). The values of vi/v0, were plotted as
(§2) a function of the inhibitor, as indicated, where v0 and vi are the steady state velocities in the
(§3) absence or presence of the inhibitor. The data points were interpolated with eq. 3, to yield Kiapp ,
(§4) which was then converted to KI using eq. 4. (B) Slow-binding inhibition. Assays were
(§5) performed by adding aT (50 pM) into a solution of S2238 (40 mM) in the presence of
(§6) Each progress curve was interpolated with
(§7) eq. 5 to obtain the corresponding observed kinetic constant, kobs.Interpolation of the data points
with eq. […]

Data set [8] concerns the target recombinant wild‐type thrombin (Homo sapiens, UniProt P00734). The experiment in a line: biochemical.
Description: (§8) The reaction was started by addition of the chromogenic substrate S2238 (50 μM). Values of v i/v 0 are plotted as a function of inhibitor concentration, where v 0 and v i are the steady state velocities of S2238 hydrolysis in the absence or presence of inhibitor. Data points are the average of three independent measurements, with errors as ±SD. […] Data points in binding/inhibition measurements are the average of three independent measurements, with errors as ±SD.
(§9) Fluorescence measurements were performed at 25 ± 0.1°C in Tris buffered saline (TBS, 20 mM Tris–HCl, pH 7.4, 0.15 M NaCl, 0.1% PEG‐8000) in a 1 cm‐pathlength cuvette, using a Jasco FP‐6500 spectrofluorimeter, equipped with a Peltier model ETC‐273T temperature control system. […] Briefly, to a solution of αT (50 nM) were added, under gentle magnetic stirring, incremental volumes of ligand stock solutions. The samples were excited at 280 nm (5/5 excitation/emission slit) and the emission intensities were recorded at 334 nm, after subtracting the corresponding spectra of the ligands alone. Fluorescence data were corrected for sample dilution, which was always <2% at the end of the titration. […]
(§10) When the binding of PABA was studied, samples were excited at 336 nm and the emission of PABA was recorded at 376 nm, after baseline subtraction and correction for inner filter effect, as detailed elsewhere (Pontarollo et al., [2017]). […]
Data set [9] concerns the target thrombin R93A (exosite II) (Homo sapiens, UniProt P00734, R452A). Description: biochemical.
Description: as §8, §9, §10

Where “and” joins values, the source holds several entries; their conditions need not be identical. Equal values may be shown once. Read-outs that look alike come from different tables or passages of the source. Bridge positions count the residues as written; N and C are the ends. Square brackets hold non-standard residues; d marks the D form. Ends that are not written are not given here. Peptide text beside a SMILES is read from it. Dip = N[C@H](C(=O)O)C(c1ccccc1)c1ccccc1; 1Nal = N[C@@H](Cc1cccc2ccccc12)C(=O)O; 2Nal = N[C@@H](Cc1ccc2ccccc2c1)C(=O)O; Cha = N[C@@H](CC1CCCCC1)C(=O)O; Nle = CCCC[C@H](N)C(=O)O

Description for α‐thrombin (αT): Enzyme inhibition assays were all performed at 25 ± 0.1°C in TBS (10 mM Tris–HCl pH 7.4, 0.1% PEG‐8000 w/v) in the presence of 0.15 M or 0.4 M NaCl, using a Jasco double‐beam V‐630 spectrophotometer equipped with a Peltier model PAC‐740 temperature control system (De Filippis et al., [1999]). Tight‐binding inhibition assays were performed by pre‐incubating αT (500 pM) for 30 min with increasing inhibitor concentrations [I]. The reaction started by the addition of the chromogenic substrate S2238 (20 μM) and the release of p‐nitroaniline (pNA) was continuously monitored at 405 nm, using a molar absorptivity of 9920 M^−1∙cm^−1.
as §1, §2, §3, §4, §5, §6, §7
with eq. 6 in the plot of kobs vs. [I], allowed us to estimate the values of kon and koff (see
Methods for details). All measurements were conducted in at 25 ± 0.1°C in TBS, pH 7.4. The
data points are the average of three independent measurements, with error bars as ±SD.

The Log P is a log measure of how a compound divides between an organic and an aqueous phase. In the case of `CCCC[C@H](NC(=O)CNC(=O)[C@H](Cc1cccc2ccccc12)NC(=O)[C@H](CCCNC(=N)N)NC(=O)[C@@H](N)[C@@H](C)CC)C(=O)NCC(=O)N[C@@H](CCCCN)C(=O)N[C@H](C(=O)N1CCC[C@H]1C(=O)NCC(=O)O)C(C)C` [Phe3αNal] (H-IR[1Nal]G[Nle]GKVPG-OH), the lipophilicity (Log P) in data set [1] is given as 4.00. With “Phe3Trp: Phe3′ → Trp analogue of Haem(1–10)”, the Ki in the data set with α‐thrombin (αT) (25 ± 0.1°C, TBS, αT 250 pM incubated with peptide, S2238 50 μM, tight‐binding model (Eq. 3, 4), average of three independent measurements ± SD, read-out: K I) amounted to 2900 ± 300 nM. In the case of VSYTD [reference compound], the “inhibition of αT” value at α‐thrombin (αT) (not shown) was “lacks any significant inhibition”. In the case of `CCCC[C@H](NC(=O)CNC(=O)[C@H](Cc1ccc(O)cc1)NC(=O)[C@H](CCCNC(=N)N)NC(=O)[C@@H](N)[C@@H](C)CC)C(=O)NCC(=O)N[C@@H](CCCCN)C(=O)N[C@H](C(=O)N1CCC[C@H]1C(=O)NCC(=O)O)C(C)C` [Phe3Tyr] (H-IRYG[Nle]GKVPG-OH), in data set [1], the log partition coefficient (Log P) is on record as 1.97. For the same compound, the Ki on α‐thrombin (αT) was 6600 ± 400 nM. `CCCC[C@H](NC(=O)CNC(=O)[C@H](Cc1ccccc1)NC(=O)[C@H](CCCNC(=N)N)NC(=O)[C@@H](N)[C@@H](C)CC)C(=O)NCC(=O)N[C@@H](CCCCN)C(=O)N[C@H](C(=O)N1CCC[C@H]1C(=O)NCC(=O)O)C(C)C` [Met5Nle] (H-IRFG[Nle]GKVPG-OH): the “Log P” value in data set [1] is listed as 2.73. At α‐thrombin (αT), the Ki worked out at 1900 ± 100 nM. Take “N‐terminal domain 1–40: N‐terminal domain 1–40 of haemadin (Richardson et al., 2002)”: the Ki with αT [2] (ref Richardson et al., 2002) is 5 nM. Take hirudin: the “coupling free energy ΔG c” value at αT [2] (fast vs slow form, ref De Filippis et al., 2005, Di Cera et al., 1997) was -2.1 kcal/mol. Besides, the “fold tighter binding to fast form than to slow form” value at αT [2] (ref De Filippis et al., 2005, Di Cera et al., 1997) is ~ 30 fold. In data set [3], the “melting temperature (T m)” value is 63 ± 1 °C and ~ 63 °C. Take “hirulog I: synthetic bivalent analogue of hirudin”: the “cleavage by αT” value in the data set with αT [4] was “slowly cleaved”. Regarding `CCCC[C@H](NC(=O)CNC(=O)[C@H](Cc1ccc2ccccc2c1)NC(=O)[C@H](CCCNC(=N)N)NC(=O)[C@@H](N)[C@@H](C)CC)C(=O)NCC(=O)N[C@@H](CCCCN)C(=O)N[C@H](C(=O)N1CCC[C@H]1C(=O)NCC(=O)O)C(C)C` [Phe3βNal] (H-IR[2Nal]G[Nle]GKVPG-OH), in [1], the lipophilicity (Log P) is given as 4.00. The same compound registered a Ki at α‐thrombin (αT) of 190 ± 10 nM. For `CCCC[C@H](NC(=O)CNC(=O)[C@H](Cc1ccc2ccccc2c1)NC(=O)[C@H](CCCNC(=N)N)NC(=O)[C@@H](N)[C@@H](C)CC)C(=O)NCC(=O)N[C@@H](CCCCN)C(=O)N[C@H](C(=O)N1CCC[C@H]1C(=O)NCC(=O)NCC(=O)NCC(=O)N1CCC[C@H]1C(=O)N[C@@H](CCCCN)C(=O)N1CCC[C@H]1C(=O)N[C@@H](CO)C(=O)N[C@@H](CO)C(=O)N[C@@H](CCC(=O)O)C(=O)N[C@@H](Cc1ccccc1)C(=O)N[C@@H](CCC(=O)O)C(=O)N[C@@H](CCC(=O)O)C(=O)N[C@@H](Cc1ccccc1)C(=O)N[C@@H](CCC(=O)O)C(=O)N[C@H](C(=O)N[C@@H](CC(=O)O)C(=O)N[C@@H](CCC(=O)O)C(=O)N[C@@H](CCC(=O)O)C(=O)N[C@@H](CCC(=O)O)C(=O)N[C@@H](CCCCN)C(=O)O)[C@@H](C)CC)C(C)C` [haemanorm] (H-IR[2Nal]G[Nle]GKVPGGGPKPSSEFEEFEIDEEEK-OH), at αT [5], the “resistance to proteolysis by αT at the Arg2‐βNal bond” value is “fully resistant”. The same compound yielded a Ki at α‐thrombin (αT) of 0.8 nM. For `CCCC[C@H](NC(=O)CNC(=O)[C@H](CC1CCCCC1)NC(=O)[C@H](CCCNC(=N)N)NC(=O)[C@@H](N)[C@@H](C)CC)C(=O)NCC(=O)N[C@@H](CCCCN)C(=O)N[C@H](C(=O)N1CCC[C@H]1C(=O)NCC(=O)O)C(C)C` [Phe3Cha] (H-IR[Cha]G[Nle]GKVPG-OH), the log partition coefficient (Log P) in data set [1] was 3.88. In addition, the Ki on α‐thrombin (αT) came to 3800 ± 100 nM. The term koff denotes the rate constant with which the complex falls apart. What is called kon is the second-order rate constant of association. “IRFGMGKVPCPDGEVGYTCDCGEKICLYGQSCNDGQCSGDPKPSSEFEEFEIDEEEK (disulfide 10-19, 21-32, 26-37) [haemadin]” came in with a Ki at α‐thrombin (αT) of 0.0015 ± 5e-05 nM. For the same compound, the off-rate constant (koff) in data set [6] is 3.68e-05 ± 1e-07 s⁻¹; in data set [7] it was 4.83e-05 ± 2e-07 s⁻¹. For the same compound, the kon is 2.998e+08 ± 300000 M⁻¹ s⁻¹ in [6] and 2.253e+08 ± 200000 M⁻¹ s⁻¹ in data set [7] (αT 50 pM added to S2238 plus inhibitor). On to `CCCC[C@H](NC(=O)CNC(=O)[C@@H](NC(=O)[C@H](CCCNC(=N)N)NC(=O)[C@@H](N)[C@@H](C)CC)C(c1ccccc1)c1ccccc1)C(=O)NCC(=O)N[C@@H](CCCCN)C(=O)N[C@H](C(=O)N1CCC[C@H]1C(=O)NCC(=O)O)C(C)C` [Phe3DiP] (H-IR[Dip]G[Nle]GKVPG-OH), for which, in [1], the “Log P” value was 4.80. At α‐thrombin (αT), this compound displayed a Ki of 7400 ± 400 nM. For orientation: Kd means a measure of binding affinity in units of concentration. SEFEEFEIDEEEK [Haem(45–57)]: the Kd turned out to be 1600 nM in data set [8] and 1180 ± 90 nM in data set [9].

These data come from paper PMC10683372 (Protein Science : A Publication of the Protein Society, 2023).
